The results in this text go back to US8241872B2, “Microorganism producing cyclic compound” (Astellas Pharma Inc., priority 2008, dated 2012).

Non-standard residues stand in square brackets, D forms with d. Residues, ends and D or L forms follow the SMILES beside them. ξ: configuration not given here. ξOrn(N(OH)Ac) = CC(=O)N(O)CCCC(N)C(=O)O

Experiment in all cases: Antifungal activity, broth microdilution method
Common to all, as to format: cell-based

For experiment [1], the system named is Alternaria alternata AHU9258. The method, then: (§1) Antifungal activities for test fungi shown in Table 15 was determined by a broth microdilution method (Hikaru Kume and Toshikazu Yamazaki, Clinical Microbiology, Vol. 21, No. 5, pp. 573-580, 1994).
Experiment [2] concerns Aspergillus flavus ATCC9643. Here is the method: as §1
Experiment [3] concerns Aspergillus fumigatus FP1305. The method, then: as §1
Experiment [4] relates to Aspergillus niger ATCC6275. The method, then: as §1
Experiment [5] deals with Aspergillus terreus SR0174. The method, then:
as §1

Experiment [6] deals with Candida glabrata FP1944. Here is the method: as §1
For experiment [7], the system named is Candida guilliermondii FP2086. The method, then:
as §1

In experiment [8] the test system is Candida krusei FP1979. The method, then:
as §1

The test system of experiment [9] is Candida parapsilosis FP1980. The method, then:
as §1

Experiment [10] relates to Cryptococcus neoformans FP1739. The method, then:
as §1

For experiment [11], the system named is Fusarium solani FP1930. Here is the method:
as §1

Experiment [12] has as its system Pseudallescheria boydii FP1987. Here is the method:
as §1

Experiment [13] deals with Rhizopus oryzae FP1988. Here is the method:
as §1

Experiment [14] deals with Trichophyton mentagrophytes FP2103. The method, then: as §1
The test system of experiment [15] is Trichophyton rubrum FP596. Here is the method: as §1
In experiment [16] the test system is Trichosporon asahi FP2044. The method, then:
as §1

With `CC(=O)N(O)CCCC1NC(=O)C(CCCN(O)C(C)=O)NC(=O)C(Cc2ccccc2)NC(=O)C(CC(C)C)NC(=O)C(CC(N)=O)NC(=O)C(CCCN(O)C(C)=O)NC1=O` (stereo not shown) [compound B] (cyclo([ξOrn(N(OH)Ac)][ξOrn(N(OH)Ac)][ξOrn(N(OH)Ac)]NLF); configuration not given here), the “MEC (minimum effective concentration)” value in experiment [1] came out at 0.1 µg/mL; in [2], 0.2 µg/mL; in experiment [3], 0.31 µg/mL; in [4], 0.78 µg/mL; in [5], 0.31 µg/mL; in experiment [6], 0.31 µg/mL. Moreover, the “MEC (minimum effective concentration)” value in experiment [7] was determined as 0.31 µg/mL; in [8], 0.31 µg/mL; in [9] it was 0.39 µg/mL; in experiment [10], 0.2 µg/mL; in experiment [11] it was 0.2 µg/mL; in experiment [12], 0.2 µg/mL. Also, the “MEC (minimum effective concentration)” value worked out at 25 µg/mL in [13], 0.78 µg/mL in experiment [14], 1.25 µg/mL in experiment [15] and 0.2 µg/mL in experiment [16].
